From patent publication US5242945A, “Tetronic and thiotetronic acid derivatives as phospholipase A2 inhibitors” (American Home Products Corporation, priority 1991, dated 1993)

Tests used:
[1] = system: purified PLA2, from the diamond back cotton mouth snake (A. piscivorus piscivorus); assay: in vivo PLA2 murine paw edema assay; design: species or system A. piscivorus piscivorus PLA2 in CD-1 mice; conditions: p.o.; at +10 min
Description: The ability of the compounds of the invention to inhibit paw edema induced by the exogenous administration of PLA2 is measured in the in vivo PLA2 murine paw edema assay.
Non-fasted, male CD-1 mice (8 weeks old; 31-36 grams) are placed in plastic boxes in groups of six. The right hind paw volume is measured using mercury plethysmography (zero time). Compounds are dosed orally (0.5 mL of 0.5% Tween-80) 1 or 3 hours prior to PLA2 injection or intravenously (0.2 mL in 0.3% dimethylsulfoxide/saline) 3 minutes prior to PLA2 injection. A solution of purified PLA2, from the diamond back cotton mouth snake (A. piscivorus piscivorus) is prepared in saline at a concentration of 6 μg/mL. Fifty (50) μL (0.3 μg) of this PLA2 solution is injected subcutaneously into the right hind paw with a plastic 1 mL plastic syringe (27 gauge, 1" needle). Paw volume of the injected paw is measured again at 10 minutes, 30 minutes and 60 minutes after PLA2 injection. Animals are euthanized with CO2 at the completion of the study.
The paw edema is calculated by subtracting the zero time volume from the volume recorded at each time period. Mean paw edema for each treatment group is then calculated and expressed as (μL±S.E.). Drug effects are expressed as a percent change from control (vehicle) values. Statistical significance is determined by a one-way analysis of variance with LSD comparison to control (p<0.05). ED50 's are determined using […].

[2] = system: purified PLA2, from the diamond back cotton mouth snake (A. piscivorus piscivorus); assay: in vivo PLA2 murine paw edema assay; design: species or system A. piscivorus piscivorus PLA2 in CD-1 mice; conditions: p.o. 3 hr; at +10 min
[3] = system: 5-lipoxygenase (LTC4); assay: resident murine peritoneal macrophage assay, LTC4; format: cell-based, mouse (Swiss Webster); conditions: Mus musculus, Peritoneal macrophage; zymosan stimulation; 1.0 μM
Description: (§1) The ability of the compounds of the invention to act as inhibitors of the enzymes 5-lipoxygenase and cyclooxygenase is measured in the resident murine peritoneal macrophage assay.
(§2) Resident peritoneal macrophages are collected from female Swiss Webster mice (49 days old, 20-25 gms, Buckshire) by lavaging with 7-8 ml Hanks Balanced Salt Solution (HBSS) without Ca^++ and Mg^++ (GIBCO). The lavage fluid from several mice is pooled and centrifuged at 4° C. for 10 minutes at 400 xg.
(§3) Residual serum and cellular debris are removed from the monolayers by washing 3× with 2 ml HBSS containing Ca^++ and Mg^++. Macrophages are preincubated for 5 minutes with 1 ml serum-free M199 containing 10 μl dimethyl sulfoxide (DMSO) vehicle or test compound prior to cell activation with zymosan ([…]) or arachidonic acid (AA) (2 μM). After 2 hours, the supernatants are removed and either assayed for LTC4 and PGE2 by radioimmunoassay (RIA) directly or stored at -20° C. In all cases, results are expressed as ng metabolite/4×10^6 cells.
(§4) Raw data (dpm) may be stored directly onto an "Autostart" tape using the HP85 in room C-096. The raw data are converted to ng metabolite/4-10^6cells using the standard curve by a "RIANAL" program (HP85) or a "NONLIN" program (HP9816). Results are then expressed as percent inhibition of zymosan induced, leukotriene or prostaglandin synthesis (control) using the equation: [formula]

[4] = target: T1, human platelet PLA2 (Homo sapiens, UniProt P14555); assay: in vitro isolated phospholipase A2 assay, human platelet PLA2; format: biochemical; conditions: at 10 μM; + values given without explanation; read-out: % Inhibition HP (human platelet)
T1 construct: platelet acid extract PLA2; from tissue; host or cells: human platelets, semipurified acid extract
T1 sequence (P14555 21-144): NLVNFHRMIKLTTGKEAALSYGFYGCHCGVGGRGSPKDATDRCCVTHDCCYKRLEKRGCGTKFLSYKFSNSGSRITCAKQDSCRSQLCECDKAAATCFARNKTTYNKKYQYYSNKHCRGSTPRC
Description: (§5) The compounds of the invention are tested in an in vitro isolated phospholipase A2 assay to determine the ability of the test compounds to inhibit the release of arachidonic acid from an arachidonic acid-containing substrate by the action of phospholipase A2 enzyme from human and non-human sources.
(§6) Into a 15 mL polypropylene tube are added the following:
(§7) ^3 H-AA E. coli substrate^1
(§8) Tris-HCl (0.5 M) pH 7.5^3
(§9) PLA2 25 Volume yielding 12%
(§10) 100 hydrolysis in 10 min.
(§11) *pre-incubate at room temperature 30 min prior to substrate addition.
(§12) ^6 Two human PLA2 enzymes are used: a) Semipurified human
(§13) platelet acid extract PLA2 (in 10 mM sodium acetate buffer, pH 4.5).
(§14) Remove protein precipitate by centrifugation at about 2200 rpm for 10
(§15) minutes. b) Purified human synovial fluid.
(§16) Incubate the 100 μL reaction mixture for 10 minutes at 37° C. in a shaking water bath. The reaction is terminated by the addition of 2 mL tetrahydrofuran, followed by vortexing. NH2 columns (100 μg/mL--Analytichem International) are conditioned with 0.5 mL tetrahydrofuran followed by 0.5 mL tetrahydrofuran/water (2 mL:0.1 mL, v/v).
(§17) The sample is loaded onto the columns and slowly drawn through them. The hydrolyzed arachidonic acid retained in the columns is eluted therefrom with 1 mL tetrahydrofuran/glacial acetic acid (2%). The arachidonic acid is transferred to scintillation vials and quantitated by β-counting analysis. A "total counts" sample is prepared by pipetting 25 μL ^3 H-arachidonate E. coli directly into a scintillation vial to which is added 1 mL tetrahydrofuran. 10 mL aquasol (scintillation cocktail) is added to all samples.

[5] = target: T2, human synovial fluid PLA2 (Homo sapiens, UniProt P14555); assay: in vitro isolated phospholipase A2 assay, human synovial fluid PLA2; format: biochemical; conditions: at 10 μM; + values given without explanation; read-out: % Inhibition HSF (human synovial fluid)
T2 construct: Purified human synovial fluid; from tissue; host or cells: human synovial fluid
T2 sequence (P14555 21-144): T1 sequence (P14555 21-144)
Description: as §5, §6, §7, §8, §9, §10, §11, §12, §13, §14, §15, §16, §17

[6] = system: cyclooxygenase (PGE2); assay: resident murine peritoneal macrophage assay, PGE2; format: cell-based, mouse (Swiss Webster); conditions: Mus musculus, Peritoneal macrophage; zymosan stimulation; 1.0 μM; read-out: PGE2 zymosan % Inhibition
Description: as §1
as §2, with “xg. The cell pellet is resuspended in Medium 199 (GIBCO) with HEPES buffer containing 100 μg/ml gentamicin. Two ml of the cell suspension (4×10^6 cells) are then plated on 35 mm culture dishes (Nunc).” for “xg.”
A macrophage monolayer is established after a 1-1.5 hour incubation of the cells at 37° C. in an atmosphere of […] and 5% CO2. The monolayers are washed 2× with 2 ml HBDSS, containing Ca^++ and Mg^++ after which 2 ml Medium 199 supplemented with 10% freshly thawed heat-inactivated fetal bovine serum and 100 μg/ml gentamicin is added for an overnight incubation.
as §3, §4

[7] = system: TPA-induced ear edema; assay: 12-o-tetradecanoylphorbol acetate (TPA)-induced murine ear edema assay; format: in vivo, mouse (Swiss Webster); conditions: TPA; topical, 200 μg, vehicle acetone
Description: The ability of the compounds of the invention to inhibit inflammatory responses is examined in the in vivo arachidonic acid (AA)/12-o-tetradecanoylphorbol acetate (TPA)-induced murine ear edema assay.
Swiss Webster female mice (Buckshire), approximately 8 weeks old are placed into plastic boxes in groups of six. Eight groups of mice receive AA topically on the right ear, and another 8 groups receive TPA topically on the right ear. AA and TPA are dissolved in acetone at concentrations of 100 mg/ml and 100 μg/ml respectively. The phlogistics are applied to the right ear by the means of an automatic pipet. Volumes of 10 μl are applied to the inner and outer surfaces of the ear. Each mouse receives either 2 mg/ear AA or 2 μg/ear TPA. The left ear (control) receives acetone delivered in the same manner. Topical and subcutaneous dosing regimens are as follows 1) drugs are given 30 minutes prior to AA treatment and 2) drugs are given 30 minutes after treatment with TPA.
Measurements are taken with Oditest calipers, 0-10 mm with 0.01 graduations. The right and left ears are measured after 1 hr AA-induced inflammation and 4 hours after TPA-induced inflammation.
The difference between right and left ear thickness is calculated and the significance is determined by a one way analysis of variance with Dunnett's comparisons to control (P=0.05). Drug effects are expressed as a percent change from control values: [formula]

[8] = system: platelet-activating factor (PAF) biosynthesis in human polymorphonuclear neutrophils (PMN); assay: platelet-activating factor biosynthesis in human polymorphonuclear neutrophils (in vitro phospholipase A2 assay); format: cell-based; conditions: Homo sapiens, Polymorphonuclear neutrophil; in this assay (PAF or LTB4 readout not stated)
Description: The compounds of the invention are tested in an in vitro phospholipase A2 assay to determine the ability of the compounds to inhibit the biosynthesis of platelet-activating factor and LTB4 in purified human neutrophils.
A leukocyte enriched blood sample obtained from a healthy donor is procured by leukophoresis using a Haemonetics model 30+ blood processor (Biological Specialties, Inc., Lansdale, Penn.). The top "platelet-rich" layer is removed after a low speed spin (35 xg, 15 min, 25° C.) of the sample. The remaining cell suspension is centrifuged (400 xg, 10 min, 25° C.) to sediment the remaining cells. The supernatant is discarded and the cell pellet resuspended in 120 ml HBSS (without Ca^++ /Mg^++). The cell suspension is subjected to ficoll-hypaque sedimentation (Histopaque 1077, 400 xg, 30 min, 25° C.). Contaminating erythrocytes are lysed by hypotonic shock (1 min). The cells are then washed once with 40 ml of HBSS and resuspended with HBSS (without Ca^++ /Mg^++) to a concentration of 2.5×10^7 cells/ml for further use. Greater than 95% purity is obtained, as assessed by microscopic examination.
One ml of human PMN (2.5×10^7 cells/ml) is incubated with vehicle or drugs (10 μl) for 10 minutes at 30° C. After preincubation, an equal volume of HBSS (1 ml) containing 2.4 mM CaCl2, 6 μM calcium ionophore A23187 and 50 μCi [^3 H]-acetate is then incubated at 30° C. for 15 minutes. An aliquot (100 μl) of the reaction mixture is taken out and mixed with 900 μl of 15% ethanol. LTB4 is extracted by using solid phase extraction on reverse phase C18 columns to remove excess [^3 H]-acetate and PAD. The C18 column is prewashed once with 2 ml of ethanol and water. The sample aliquot is acidified with 0.1N HCl to pH 3 before applying to the column. The column is then washed with 2 ml of water followed by 2 ml of 15% ethanol and 2 ml of petroleum ether to remove excess labeled acetate. The sample is eluted with 2 ml of ethyl acetate. The collected samples are dried with nitrogen and resuspended in 0.5 ml RIA buffer. The quantity of LTB4 in the sample is obtained from RIA determination. For PAF determination, the reaction is terminated by addition of 5 ml chloroform:methanol:acetic acid (2:1:0.04, v/v/v). [^3 H]-PAF is obtained by Bligh and Dyer extraction. The chloroform phase is removed and dried under nitrogen. The residue is redissolved in 75 μl of chloroform:methanol (80:20, v/v). [^3 H]-PAF is resolved from other phospholipids by TLC on RPC18 plates with a solvent system of chloroform:methanol:water (2:3:1, v/v/v) and is quantitated using a Berthold automated TLC linear analyzer.
Data presented are the mean +/- s.d. of the values relative to control A23187 stimulated cells for each experiment assayed in triplicate. Percent inhibition when used is calculated as:
% Inhibition=100-[(x.div.Control)×100].
Dose response analysis is performed by non-linear regression analysis for curve fitting and IC50 determination.

`COc1cccc2c1cc([N+](=O)[O-])c1c(C(=O)O)cc3c(c12)OCO3` [Aristolochic Acid, reference compound] was tested, and the “ED50 at +10 min.” value [1] was “Not Active”.
`CN1CCC(=C2c3ccccc3C=Cc3ccccc32)CC1` [Cyproheptadine, reference compound] was tested, and the “ED50 at +10 min.” value [1] was 3.1 mg/kg.
`C[C@@H]1C[C@H]2[C@@H]3CCC4=CC(=O)C=C[C@]4(C)[C@@]3(F)[C@@H](O)C[C@]2(C)[C@@]1(O)C(=O)CO` [Dexamethasone, reference compound] was tested, and the “ED50 at +10 min.” value [2] was 10 mg/kg.
`CCCCCCCC/C=C\CCCCCCCC(=O)OCCCC(=O)C1=C(O)COC1=O` [Example 38, (Z)-9-Octadecanoic acid 4-(2,5-dihydro-4-hydroxy-2-oxo-3-furanyl)-4-oxobutanoic ester] gave an inhibition at 1 µM [3] of 46.4%, an inhibition at 10 µM [4] of 80.9% and an inhibition at 10 µM [5] of 18.8%. For the same compound, the inhibition at 1 µM [6] was 75.8% and the “Topical % Inhibition at 200 μg” value [7] was 23%.
For `COc1ccc2cc([C@H](C)C(=O)O)ccc2c1` [Naproxen, reference compound], the “ED50 at +10 min.” value [1] was 18 mg/kg.
`CC(=O)O[C@H]1C[C@@H]2[C@@]3(C)CCCC(C)(C)[C@@H]3CC[C@@]2(C)[C@@H]2CC=C(C=O)[C@H](C=O)[C@@]12C` [scalaradial, reference compound] was tested, and the IC50 [8] was 1000 nM.
In the case of Luffarrellolide [reference compound], the “ED50 at +10 min.” value [1] is reported as “Not Active”.
